Among the data in patent US20220324835A1 (Nurix Therapeutics, Inc., priority 2018, published 2022) are fold induction values, retold here.

Experiment [1] concerns T-cell. Briefly: CD25 cell surface staining on T-cells stimulated with anti-CD3 antibody alone (Biological Example 2). The format is cell-based, human. Particulars: T-cell, fold change over baseline, primary human total T-cells, read-out: CD25 staining Anti-CD3 stimulation; for fold induction at 1 µM: 1 μM Cbl-b inhibitor; for fold induction at 8 µM: 8 μM Cbl-b inhibitor.
In experiment [2] the test system is T-cell. Briefly: IL-2 secretion from T-cells stimulated with anti-CD3 antibody alone (Biological Example 2). The format is cell-based, human. The note with it: T-cell, fold change over baseline, primary human total T-cells, read-out: IL-2 secretion Anti-CD3 stimulation; for fold induction at 1 µM: 1 μM Cbl-b inhibitor; for fold induction at 8 µM: 8 μM Cbl-b inhibitor.

Consider `Cn1cnnc1C(F)(F)C(C)(F)c1cccc(N2Cc3c(cccc3C(F)(F)F)C2=O)c1` (racemic) [Compound 296, 2-(3-(1,1,2-trifluoro-1-(4-methyl-4H-1,2,4-triazol-3-yl)propan-2-yl)phenyl)-4-(trifluoromethyl)isoindolin-1-one], for which, in the experiment with T-cell [1], the fold induction at 1 µM is 0.601 to 0.8 and the fold induction at 8 µM is 0.601 to 0.8. Besides, in the experiment with T-cell [2], the fold induction at 1 µM is above 0.201 and the fold induction at 8 µM is above 0.201.

For `Cn1cnnc1CC(C)(F)c1cccc(N2Cc3c(cccc3C(F)(F)F)C2=O)c1` (racemic) [Compound 298, 2-(3-(2-fluoro-1-(4-methyl-4H-1,2,4-triazol-3-yl)propan-2-yl)phenyl)-4-(trifluoromethyl)isoindolin-1-one], in the experiment with T-cell [1], the fold induction at 1 µM is 0.601 to 0.8 and the fold induction at 8 µM lay within 0.601 to 0.8. Besides, in the experiment with T-cell [2], the fold induction at 1 µM was in the range of 0.051 to 0.1 and the fold induction at 8 µM is 0.101 to 0.15.

For `C[C@H](Cc1nncn1C)c1cc(N[C@@H]2CCOC2)nc(N2Cc3c(cccc3C(F)(F)F)C2=O)c1` (stereo in doubt) [Compound 362, 2-(4-((R)-1-(4-methyl-4H-1,2,4-triazol-3-yl)propan-2-yl)-6-((S)-THF-3-ylamino)pyridin-2-yl)-4-(trifluoromethyl)isoindolin-1-one], in the experiment on T-cell [1], the fold induction at 1 µM was 0.601 to 0.8 and the fold induction at 8 µM fell in the range of 0.801 to 1. For the same compound, in the experiment on T-cell [2], the fold induction at 1 µM fell in the range of 0.051 to 0.1 and the fold induction at 8 µM was 0.101 to 0.15.

Regarding `Cc1cc(C(=O)Nc2cccc([C@H](C)Sc3nncn3C)c2)nc2ccccc12` [Compound 30, (S)-4-Methyl-N-(3-(1-((4-methyl-4H-1,2,4-triazol-3-yl)thio)ethyl)phenyl)quinoline-2-carboxamide], in the experiment on T-cell [1], the fold induction at 1 µM is 0.601 to 0.8 and the fold induction at 8 µM fell in the range of 0.801 to 1. In the experiment on T-cell [2], the fold induction at 1 µM was 0.051 to 0.1 and the fold induction at 8 µM fell in the range of 0.101 to 0.15.

Consider `C[C@H](Sc1nncn1C)c1cccc(NC(=O)c2cc(C(F)(F)F)ccn2)c1` [Compound 32, (S)-N-(3-(1-((4-Methyl-4H-1,2,4-triazol-3-yl)thio)ethyl)phenyl)-4-(trifluoromethyl)picolinamide], for which, in the experiment on T-cell [1], the fold induction at 1 µM fell in the range of 0.601 to 0.8 and the fold induction at 8 µM was above 1. For the same compound, in the experiment on T-cell [2], the fold induction at 1 µM was below 0.05 and the fold induction at 8 µM is 0.101 to 0.15.

In the case of `CC(C)c1cccc(C(=O)Nc2cccc([C@H](C)Sc3nncn3C)c2)n1` [Compound 33, (S)-6-Isopropyl-N-(3-(1-((4-methyl-4H-1,2,4-triazol-3-yl)thio)ethyl)phenyl)picolinamide], in the experiment on T-cell [1], the fold induction at 1 µM is below 0.6 and the fold induction at 8 µM is 0.801 to 1. For the same compound, in the experiment with T-cell [2], the fold induction at 1 µM was below 0.05 and the fold induction at 8 µM is below 0.05.

`Cc1ccc(C(=O)Nc2cccc([C@H](C)Sc3nncn3C)c2)nc1C` [Compound 35, (S)-5,6-Dimethyl-N-(3-(1-((4-methyl-4H-1,2,4-triazol-3-yl)thio)ethyl)phenyl)picolinamide]: in the experiment on T-cell [1], the fold induction at 1 µM is below 0.6 and the fold induction at 8 µM is 0.601 to 0.8. Moreover, in the experiment with T-cell [2], the fold induction at 1 µM is below 0.05 and the fold induction at 8 µM was above 0.201.

For the compound `Cc1cccc2nc(C(=O)Nc3cccc([C@H](C)Sc4nncn4C)c3)ccc12` [Compound 48, 5-Methyl-N-[3-[(1S)-1-[(4-methyl-4H-1,2,4-triazol-3-yl)sulfanyl]ethyl]phenyl]quinoline-2-carboxamide], the values for the fold induction at 1 µM with T-cell [1] and in the experiment with T-cell [2] were 0.801 to 1 and below 0.05, respectively. The fold induction at 8 µM is 0.801 to 1 with T-cell [1] and 0.101 to 0.15 with T-cell [2].

Take `C[C@H](Sc1nncn1C)c1cccc(NC(=O)c2ccc(Cl)c(C(F)(F)F)n2)c1` [Compound 51, (S)-5-chloro-N-(3-(1-((4-methyl-4H-1,2,4-triazol-3-yl)thio)ethyl)phenyl)-6-(trifluoromethyl)picolinamide]: in the experiment with T-cell [1], the fold induction at 1 µM is 0.801 to 1 and the fold induction at 8 µM was above 1. In addition, in the experiment with T-cell [2], the fold induction at 1 µM was below 0.05 and the fold induction at 8 µM was below 0.05.

As to `C[C@H](Sc1nncn1C)c1cccc(NC(=O)c2cc(C(C)(C)O)c(Cl)cn2)c1` [Compound 55, (S)-5-chloro-4-(2-hydroxypropan-2-yl)-N-(3-(1-((4-methyl-4H-1,2,4-triazol-3-yl)thio)ethyl)phenyl)picolinamide], in the experiment on T-cell [1], the fold induction at 1 µM was below 0.6 and the fold induction at 8 µM lay within 0.601 to 0.8. For the same compound, in the experiment on T-cell [2], the fold induction at 1 µM was below 0.05 and the fold induction at 8 µM was below 0.05.

As to `Cc1cc(C)nc(C(=O)Nc2cccc([C@H](C)Sc3nncn3C)c2)c1` [Compound 56, (S)-4,6-dimethyl-N-(3-(1-((4-methyl-4H-1,2,4-triazol-3-yl)thio)ethyl)phenyl)picolinamide], in the experiment with T-cell [1], the fold induction at 1 µM was below 0.6 and the fold induction at 8 µM was 0.801 to 1. In addition, in the experiment on T-cell [2], the fold induction at 1 µM is below 0.05 and the fold induction at 8 µM was below 0.05.

Regarding `Cc1ccc(C(=O)Nc2cccc([C@H](C)Sc3nncn3C)c2)nc1C(F)(F)F` [Compound 61, (S)-5-methyl-N-(3-(1-((4-methyl-4H-1,2,4-triazol-3-yl)thio)ethyl)phenyl)-6-(trifluoromethyl)picolinamide], in the experiment on T-cell [1], the fold induction at 1 µM lay in the range of 0.601 to 0.8 and the fold induction at 8 µM is above 1. Further, in the experiment with T-cell [2], the fold induction at 1 µM is below 0.05 and the fold induction at 8 µM was below 0.05.

Consider `COc1nc(C(=O)Nc2cccc([C@H](C)Sc3nncn3C)c2)cc2ccccc12` [Compound 62, (S)-1-methoxy-N-(3-(1-((4-methyl-4H-1,2,4-triazol-3-yl)thio)ethyl)phenyl)isoquinoline-3-carboxamide], for which, in the experiment with T-cell [1], the fold induction at 1 µM was below 0.6 and the fold induction at 8 µM lay in the range of 0.801 to 1. Also, in the experiment on T-cell [2], the fold induction at 1 µM was below 0.05 and the fold induction at 8 µM lay within 0.051 to 0.1.

For the compound `C[C@H](Sc1nncn1C)c1cccc(NC(=O)c2cc(C(F)(F)F)cc(C(F)(F)F)n2)c1` [Compound 64, (S)-N-(3-(1-((4-methyl-4H-1,2,4-triazol-3-yl)thio)ethyl)phenyl)-4,6-bis(trifluoromethyl)picolinamide], the fold induction at 1 µM in the experiment with T-cell [1] is below 0.6; with T-cell [2] it was below 0.05. Besides, the fold induction at 8 µM in the experiment with T-cell [1] is 0.601 to 0.8; with T-cell [2], below 0.05.

For `C[C@H](Sc1nncn1C)c1cccc(NC(=O)c2cc(Cl)cc(C(F)(F)F)n2)c1` [Compound 68, (S)-4-chloro-N-(3-(1-((4-methyl-4H-1,2,4-triazol-3-yl)thio)ethyl)phenyl)-6-(trifluoromethyl)picolinamide], in the experiment on T-cell [1], the fold induction at 1 µM lay within 0.601 to 0.8 and the fold induction at 8 µM is 0.801 to 1. In the experiment on T-cell [2], the fold induction at 1 µM was below 0.05 and the fold induction at 8 µM lay in the range of 0.051 to 0.1.

As to `C[C@H](Sc1nncn1C)c1cccc(NC(=O)c2cc(C(F)(F)F)cc(C3CC3)n2)c1` [Compound 69, (S)-6-cyclopropyl-N-(3-(1-((4-methyl-4H-1,2,4-triazol-3-yl)thio)ethyl)phenyl)-4-(trifluoromethyl)picolinamide], the values for the fold induction at 1 µM in the experiment on T-cell [1] and in the experiment on T-cell [2] were below 0.6 and below 0.05, respectively. In addition, the fold induction at 8 µM in the experiment on T-cell [1] was below 0.6; with T-cell [2], below 0.05.
